# Values of other authors as cited in patent EP0385476B2, “Physiologically active polypeptide and DNA” (SHIONOGI & CO., LTD., priority 1989, dated 1999).
# System: chicken rectum
# Conditions: relative to ANP
substance,measurement,value
porcine brain natriuretic peptide [pBNP],"rectum relaxation activity, times higher than that of ANP",3 to 4 times
